Measured values from patent US20190105367A1, “ANTIMICROBIAL 4-OXOQUINOLIZINES” (Emergent Product Development Gaithersburg Inc., priority 2011, published 2019).
In brackets after ≈: the same amount, converted by molar mass. Where two headings read alike, the source gives them in different places.

Columns and labels:
A. baumannii A14 [1] = assay: MIC without and with sub-inhibitory polymyxin B (Example 4); assay type: cell-based, Acinetobacter baumannii; settings: 1st experiment
A. baumannii J2 = assay: as above; assay type: cell-based, Acinetobacter baumannii; settings: for MIC without PB/MIC + PB: A. baumannii J2; for MIC: Acinetobacter baumannii
A. baumannii A14 [2] = assay: Preliminary MBC without and with sub-inhibitory polymyxin B (Example 4); assay type: cell-based, Acinetobacter baumannii; settings: A. baumannii A14, preliminary MBC, 1st experiment
A. baumannii A401 [3] = assay: as above; assay type: cell-based, Acinetobacter baumannii; settings: Acinetobacter baumannii
A. baumannii A489 = assay: as above; assay type: cell-based, Acinetobacter baumannii; settings: Acinetobacter baumannii, preliminary MBC
A. baumannii A387 [4] = assay: as above; assay type: cell-based, Acinetobacter baumannii; settings: Acinetobacter baumannii
A. baumannii A387 [5] = assay: MIC without and with sub-inhibitory polymyxin B (Example 4); assay type: cell-based, Acinetobacter baumannii; settings: for MIC without PB/MIC + PB: A. baumannii A387
A. baumannii A390 [6] = assay: as above; assay type: cell-based, Acinetobacter baumannii; settings: +0.06 μg/ml PB, 2nd experiment
A. baumannii A329 [7] = assay: Preliminary MBC without and with sub-inhibitory polymyxin B (Example 4); assay type: cell-based, Acinetobacter baumannii; settings: Acinetobacter baumannii, A329, A. baumannii A329, +0.06 μg/ml PB, 2nd experiment, read-out: MBC
A. baumannii ATCC 19606 = assay: MIC without and with sub-inhibitory polymyxin B (Example 4); assay type: cell-based, Acinetobacter baumannii; settings: for MIC without PB/MIC + PB: A. baumannii ATCC 19606; for MIC: Acinetobacter baumannii
A. baumannii NCTC 13301 [8] = assay: as above; assay type: cell-based, Acinetobacter baumannii
A. baumannii A472 [9] = assay: Preliminary MBC without and with sub-inhibitory polymyxin B (Example 4); assay type: cell-based, Acinetobacter baumannii; settings: Acinetobacter baumannii, preliminary MBC
A. baumannii A329 [10] = assay: MIC without and with sub-inhibitory polymyxin B (Example 4); assay type: cell-based, Acinetobacter baumannii; settings: A. baumannii A329; +0.06 μg/ml PB; 2nd experiment
A. baumannii NCTC 13301 [11] = assay: as above; assay type: cell-based, Acinetobacter baumannii; settings: +[…] PB, 2nd experiment
A. baumannii A472 [12] = assay: as above; assay type: cell-based, Acinetobacter baumannii; settings: for MIC: Acinetobacter baumannii
A. baumannii A390 [13] = assay: Preliminary MBC without and with sub-inhibitory polymyxin B (Example 4); assay type: cell-based, Acinetobacter baumannii; settings: Acinetobacter baumannii, A390, A. baumannii A390, +0.06 μg/ml PB, 2nd experiment, read-out: MBC
Summary of the method: (§1)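 After plating, cultures are held at 37° C for 18-20 hours; the endpoint is then scored by comparing colony growth against the positive control, with MBC defined as the lowest concentration showing roughly 90% reduction.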

A. baumannii NCTC 13301 [14] = assay: as above; assay type: cell-based, Acinetobacter baumannii; settings: Acinetobacter baumannii
Summary of the method: as §1

A. baumannii A473 [15] = assay: as above; assay type: cell-based, Acinetobacter baumannii; settings: Acinetobacter baumannii, A473, A. baumannii A473, +0.06 μg/ml PB, 2nd experiment, read-out: MBC
Summary of the method: as §1

A. baumannii A14 [16] = assay: as above; assay type: cell-based, Acinetobacter baumannii; settings: 2nd experiment
Summary of the method: as §1

A. baumannii A473 [17] = assay: MIC without and with sub-inhibitory polymyxin B (Example 4); assay type: cell-based, Acinetobacter baumannii; settings: +0.06 μg/ml PB, 2nd experiment
[18] = test system: strains of A. baumannii and one strain of Acinetobacter sp.; assay: MIC with sub-inhibitory concentrations (0.25x MIC) of polymyxin B, panel of Acinetobacter strains (Example 4); assay type: cell-based
[19] = test system: Acinetobacter sp. (H064200250); assay: MIC without and with sub-inhibitory polymyxin B (Example 4); assay type: cell-based; settings: for MIC: Acinetobacter
A. baumannii A401 [20] = assay: as above; assay type: cell-based, Acinetobacter baumannii; settings: for MIC: Acinetobacter baumannii
A. baumannii A14 [21] = assay: as above; assay type: cell-based, Acinetobacter baumannii; settings: 2nd experiment
[22] = ratio, PB 0.06 μg/ml, 1st experiment
[23] = A. baumannii A14, +0.06 μg/ml PB

`Cc1c(-c2cc(Cl)c(N)c(Cl)c2)ccn2c(=O)c(C(=O)O)cc(C3CC3)c12` [Compound 3, 8-(3,5-dichloro-4-amino-phenyl)-1-cyclopropyl-9-methyl-4-oxo-quinolizine-3-carboxylic acid] was tested, and the “MIC +0.06 μg/ml PB” value (A. baumannii A14 [1]; +0.06 μg/ml polymyxin B) was 1 µg/mL, the MIC (A. baumannii A14 [1]; Acinetobacter baumannii, 24 h, without polymyxin B, read-out: MIC without PB) was > 32 µg/mL and the “MIC without PB/MIC + PB” value (A. baumannii A14 [1]; ratio, PB 0.06 μg/ml) was ≥32. The “MIC without PB/MIC + PB” value (A. baumannii J2; +[…] PB, 2nd experiment) was ≥1024, the “MIC without PB/MIC + PB” value (A. baumannii J2; ratio, PB […], 1st experiment) was 64 and the MIC (A. baumannii J2; J2, A. baumannii J2, +[…] PB, 2nd experiment, read-out: MIC) was ≤ 0.03 µg/mL. For the same compound, the MIC (A. baumannii J2; J2, read-out: MIC +[…] PB, A. baumannii J2, +[…] polymyxin B, 1st experiment) was 0.125 µg/mL (≈ 0.31 µM), the “MBC +0.06 μg/ml PB” value (A. baumannii A14 [2]; +0.06 μg/ml polymyxin B) was 1 µg/mL and the MBC (A. baumannii A14 [2]; Acinetobacter baumannii, without polymyxin B, read-out: MBC without PB) was > 32 µg/mL. The MBC (A. baumannii A401 [3]; A401, A baumannii A 401, +0.06 μg/ml PB, 2nd experiment, read-out: MBC) was 0.125 µg/mL (≈ 0.31 µM), the MBC (A. baumannii A401 [3]; A401, read-out: MBC +0.06 μg/ml PB, A baumannii A 401, +0.06 μg/ml polymyxin B, 1st experiment) was 0.125 µg/mL and the MBC (A. baumannii A489; A489, A. baumannii A489, +[…] PB, 2nd experiment, read-out: MBC) was ≤ 0.03 µg/mL. For the same compound, the MBC (A. baumannii A489; A489, read-out: MBC +[…] PB, A. baumannii A489, +[…] polymyxin B, 1st experiment) was 0.06 µg/mL (≈ 0.149 µM), the MBC (A. baumannii A387 [4]; A387, A. baumannii A387, +0.06 μg/ml PB, 2nd experiment, read-out: MBC) was ≤ 0.03 µg/mL and the MBC (A. baumannii A387 [4]; A387, read-out: MBC +0.06 μg/ml PB, A. baumannii A387, +0.06 μg/ml polymyxin B, 1st experiment) was 0.25 µg/mL. For the same compound, the “MIC without PB/MIC + PB” value (A. baumannii A387 [5]; +0.06 μg/ml PB, 2nd experiment) was ≥32, the “MIC without PB/MIC + PB” value (A. baumannii A387 [5]; [22]) was ≥32 and the MIC (A. baumannii A387 [5]; Acinetobacter baumannii, A387, read-out: MIC +0.06 μg/ml PB, A. baumannii A387, +0.06 μg/ml polymyxin B, 1st experiment) was ≤ 0.03 µg/mL. The “MIC without PB/MIC + PB” value (A. baumannii A390 [6]; A. baumannii A390) was ≥256, the MIC (A. baumannii A390 [6]; Acinetobacter baumannii, A390, A. baumannii A390, read-out: MIC) was 0.125 µg/mL (≈ 0.31 µM) and the MBC (A. baumannii A329 [7]) was 0.25 µg/mL (≈ 0.62 µM). The “MIC without PB/MIC + PB” value (A. baumannii ATCC 19606; +0.06 μg/ml PB, 2nd experiment) was ≥8, the “MIC without PB/MIC + PB” value (A. baumannii ATCC 19606; [22]) was ≥8 and the MIC (A. baumannii ATCC 19606; ATCC19606, A. baumannii ATCC 19606, +0.06 μg/ml PB, 2nd experiment, read-out: MIC) was ≤ 0.03 µg/mL. For the same compound, the MIC (A. baumannii ATCC 19606; ATCC19606, read-out: MIC +0.06 μg/ml PB, A. baumannii ATCC 19606, +0.06 μg/ml polymyxin B, 1st experiment) was ≤ 0.03 µg/mL, the “MIC without PB/MIC + PB” value (A. baumannii NCTC 13301 [8]; A. baumannii NCTC 13301, ratio, PB […], 1st experiment) was ≥64 and the MIC (A. baumannii NCTC 13301 [8]; Acinetobacter baumannii, NCTC13301, read-out: MIC +[…] PB) was 0.5 µg/mL (≈ 1.24 µM). For the same compound, the MBC (A. baumannii A472 [9]; A472, A. baumannii A472, +[…] PB, 2nd experiment, read-out: MBC) was ≤ 0.03 µg/mL, the MBC (A. baumannii A472 [9]; A472, read-out: MBC +[…] PB, A. baumannii A472, +[…] polymyxin B, 1st experiment) was 0.25 µg/mL (≈ 0.62 µM) and the “MIC without PB/MIC + PB” value (A. baumannii A329 [10]) was 32. For the same compound, the “MIC without PB/MIC + PB” value (A. baumannii NCTC 13301 [11]; A. baumannii NCTC 13301) was ≥1024, the MIC (A. baumannii NCTC 13301 [11]; Acinetobacter baumannii, NCTC13301, A. baumannii NCTC 13301, read-out: MIC) was ≤ 0.03 µg/mL and the “MIC without PB/MIC + PB” value (A. baumannii A472 [12]; A. baumannii A472, ratio, PB […], 1st experiment) was 64. The MIC (A. baumannii A472 [12]; A472, A. baumannii A472, +[…] PB, 2nd experiment, read-out: MIC) was ≤ 0.03 µg/mL, the MIC (A. baumannii A472 [12]; A472, read-out: MIC +[…] PB, A. baumannii A472, +[…] polymyxin B, 1st experiment) was 0.5 µg/mL (≈ 1.24 µM) and the MBC (A. baumannii A390 [13]) was 0.125 µg/mL (≈ 0.31 µM). The MBC (A. baumannii NCTC 13301 [14]; NCTC13301, A. baumannii NCTC 13301, +[…] PB, preliminary MBC, 2nd experiment, read-out: MBC) was ≤ 0.03 µg/mL, the MBC (A. baumannii NCTC 13301 [14]; NCTC13301, read-out: MBC +[…] PB) was 0.5 µg/mL (≈ 1.24 µM) and the MBC (A. baumannii A473 [15]) was 0.06 µg/mL (≈ 0.149 µM). For the same compound, the MBC (A. baumannii A14 [16]; [23]) was 0.125 µg/mL (≈ 0.31 µM), the MBC (A. baumannii A14 [16]; Acinetobacter baumannii, A14, A. baumannii A14, without PB, read-out: MBC) was > 32 µg/mL and the “MIC without PB/MIC + PB” value (A. baumannii A473 [17]; A. baumannii A473) was ≥256. The MIC (A. baumannii A473 [17]; Acinetobacter baumannii, A473, A. baumannii A473, read-out: MIC) was ≤ 0.03 µg/mL, the “MIC range with PB (0.25x MIC) Oct. 1, 2008 n = 8” value ([18]; 1st experiment, […] polymyxin B, ATCC 19606, A329, A390 and A473 not taken) was ≤0.03 to 1 µg/mL and the “MIC range with PB (0.25x MIC) Oct. 14, 2008 n = 11” value ([18]; 2nd experiment, 0.06 μg/ml polymyxin B, all strains except the ATCC strain) was ≤0.03 to 0.5 µg/mL. For the same compound, the “MIC without PB/MIC + PB” value ([19]; Acinetobacter spp. H064200250 (OXA51), +[…] PB, 2nd experiment) was 256, the “MIC without PB/MIC + PB” value ([19]; Acinetobacter spp. H064200250, ratio, PB […], 1st experiment) was 16 and the MIC ([19]; Acinetobacter spp. H064200250 (OXA51), +[…] PB, 2nd experiment, read-out: MIC) was 0.06 µg/mL (≈ 0.149 µM). The MIC ([19]; read-out: MIC +[…] PB, Acinetobacter spp. H064200250, +[…] polymyxin B, 1st experiment) was 0.5 µg/mL (≈ 1.24 µM), the “MIC without PB/MIC + PB” value (A. baumannii A401 [20]; A baumannii A 401, ratio, PB 0.06 μg/ml, 1st experiment) was 64 and the MIC (A. baumannii A401 [20]; A401, A baumannii A 401, +0.06 μg/ml PB, 2nd experiment, read-out: MIC) was 0.125 µg/mL (≈ 0.31 µM). The MIC (A. baumannii A401 [20]; A401, read-out: MIC +0.06 μg/ml PB, A baumannii A 401, +0.06 μg/ml polymyxin B, 1st experiment) was 0.125 µg/mL, the MIC (A. baumannii A14 [21]; [23]) was 0.125 µg/mL (≈ 0.31 µM) and the “MIC without PB/MIC + PB” value (A. baumannii A14 [21]; [23]) was ≥256. For the same compound, the MIC (A. baumannii A14 [21]; Acinetobacter baumannii, A14, A. baumannii A14, without PB, read-out: MIC) was > 32 µg/mL.
